Values after ≈ are worked out from the molar mass of the structure shown. Like-named read-outs stand apart in the source and are kept apart here.

Data set [1] has as its system Candida albicans. The experiment in a line: in vitro antifungal activity (MIC). It counts as cell-based. As for the experimental part: Using Candida albicans, Aspergillus niger, Aspergillus fumigatus, and Cryptococcus neoformans as test fungi, in vitro antifungal activities were determined to confirm the antifungal activities of cryptoporic acids A, B, and D. The test method and the results are shown below.
The fungal strains used for this test were standard strains provided by Teikyo University, Institute of Medical Mycology. Drug sensitivity was measured using Yeast Morphology Agar (Difco) as media.
The test fungi were spread over slant made of a potato dextrose agar medium (NissuiSeiyaku) and cultured at 30° C. for one day (Candida, Cryptococcus) or four days (Aspergillus niger, Aspergillus neoformans). After culturing, fungi on the slant were washed away with sterile physiological saline supplemented with 0.1% Tween 80. The solution was passed through a filter with 15 μm pores. The fungi were counted on a hemocytometer and adjusted to 10^5 CFU/ml to serve as an inoculation solution. A 0.02 ml portion of this solution was inoculated into Yeast Morphology Agar containing test agents by two-fold serial dilution and cultured at 30° C. for 1 or 4 days.
Antifungal effect was judged with naked eyes. Concentrations at which evident inhibition of growth was observed compared with control media containing no drug were taken as MIC values.
Candida albicans, Aspergillus niger, Aspergillus fumigatus, and Cryptococcus neoformans were used as test fungi. The test for in vitro antifungal activity was conducted in the same manner as in 1 above to confirm antifungal activity.
3. In vitro antifungal activities of cryptoporic acid derivatives represented by formula 3 and a commercially available antifungal agent, Diflucan, were tested using Candida albicans as test fungi in the same manner.

Data set [2] deals with Aspergillus fumigatus. The experiment in a line: in vitro antifungal activity (MIC). The class given is cell-based. Particulars: Table 2, Yeast Morphology Agar, 30° C. The procedure: Using Candida albicans, Aspergillus niger, Aspergillus fumigatus, and Cryptococcus neoformans as test fungi, in vitro antifungal activities were determined to confirm the antifungal activities of cryptoporic acids A, B, and D. The test method and the results are shown below. The fungal strains used for this test were standard strains provided by Teikyo University, Institute of Medical Mycology. Drug sensitivity was measured using Yeast Morphology Agar (Difco) as media. The test fungi were spread over slant made of a potato dextrose agar medium (NissuiSeiyaku) and cultured at 30° C. for one day (Candida, Cryptococcus) or four days (Aspergillus niger, Aspergillus neoformans). After culturing, fungi on the slant were washed away with sterile physiological saline supplemented with 0.1% Tween 80. The solution was passed through a filter with 15 μm pores. The fungi were counted on a hemocytometer and adjusted to 10^5 CFU/ml to serve as an inoculation solution. A 0.02 ml portion of this solution was inoculated into Yeast Morphology Agar containing test agents by two-fold serial dilution and cultured at 30° C. for 1 or 4 days. Antifungal effect was judged with naked eyes. Concentrations at which evident inhibition of growth was observed compared with control media containing no drug were taken as MIC values. […]

For data set [3], the system named is Aspergillus fumigatus. The experiment in a line: Infection-Treating Test, Aspergillus fumigatus infected mice. It counts as in vivo, mice (ICR). Particulars: oral in sesame oil, first dose 1 hour after i.v. inoculation (2.0×10^6 CFU/mouse), once a day, total seven days, survival, Weil method. The procedure:
(§1) Candida albicans (1.0×10^6 CFU/mouse) or Aspergillus fumigatus (2.0×10^6 CFU/mouse) was suspended in physiological saline, and a 0.2 ml portion of each solution was injected into healthy grown mice (ICR, 4 week-old, female, 19-22 g, Nihon CLEA) via the caudal vein to establish infection. Cryptoporic acid H was dissolved in sesame oil in prescribed concentrations, and a 0.2 ml portion was orally administered per dose to the mice through a stomach probe. The first administration was conducted 1 hour after inoculation of fungi. Thereafter, administration was conducted six times (once a day every 24 hours; for a total of seven days). only the base (0.2 ml) was administered to the control group. Treatment effectiveness was evaluated with ED50 by using the Weil method from the survival rate of treated mice when all the control animals died.

Data set [4] concerns Candida albicans. Briefly: Infection-Treating Test, Candida albicans infected mice. The class given is in vivo, mice (ICR). Particulars: oral in sesame oil, first dose 1 hour after i.v. inoculation (1.0×10^6 CFU/mouse), once a day, total seven days, survival, Weil method. As for the experimental part:
as §1

The next data set in a line: Solubility. Particulars: in methanol, acetone, and ethyl acetate. The class given is physicochemical.
[5] abbreviates: 24 h, Table 1, Yeast Morphology Agar, 30° C., 1 day, read-out: MIC (Candida albicans).

Take `C=C1CC[C@H]2C(C)(C)CCC[C@]2(C)[C@H]1COC(C(=O)OC)C(CC(=O)O)C(=O)OC` (stereo partly drawn) [Cryptoporic acid A]: the MIC with Candida albicans [1] (setting [5]) turned out to be 25 µg/mL (≈ 58.9 µM).
In the case of `C=C1CC[C@H]2[C@](C)(CO)CCC[C@]2(C)[C@H]1COC(C(=O)OC)C(CC(=O)O)C(=O)OC` (stereo partly drawn) [Cryptoporic acid B], the MIC is 200 µg/mL (≈ 454 µM) with Aspergillus fumigatus [2] and 25 µg/mL (≈ 56.7 µM) with Candida albicans [1] (setting [5]).
Take `C=C1CCC2C3(C)CCCC2(C)C1COC(C(=O)OC)C(CC(=O)O)C(=O)OCC1(C)CCCC2(C)C(COC(C(=O)OC)C(CC(=O)O)C(=O)OC3)C(=C)CCC12` (stereo not drawn) [Cryptoporic acid D]: in the data set with Candida albicans [1] (setting [5]), the MIC turned out to be 100 µg/mL (≈ 122 µM).
As to `C=C1CC[C@H]2C(C)(C)CCC[C@]2(C)[C@H]1COC(C(=O)O)C(CC(=O)O)C(=O)O` (stereo partly drawn) [Cryptoporic acid H], the 50% effective dose (ED50) in the data set on Aspergillus fumigatus [3] came to 2 mg/kg; with Candida albicans [4], 0.32 mg/kg.
Regarding `OC(Cn1cncn1)(Cn1cncn1)c1ccc(F)cc1F` [Diflucan, reference compound], the MIC against Candida albicans [1] (TIMM1623) stood at 25 µg/mL (≈ 81.6 µM).
Regarding `C=C1CC[C@H]2C(C)(C)CCC[C@]2(C)[C@H]1COC(C(=O)OC)C(CC(=O)O)C(=O)O[C@H]1CC(C)(C)[C@@H]2CC=C(C=O)[C@H](C=O)[C@@]2(C)C1` (stereo partly drawn) [TG 101], the Solubility result in the data set “Solubility” was “Easily soluble”.
The same measure, in the same setting: in the case of `C=C1CC[C@H]2C(C)(C)CCC[C@]2(C)[C@H]1COC(C(=O)OC)C(CC(=O)O)C(=O)O[C@H]1CC(C)(C)[C@@H]2CC=C3COC(O)[C@@H]3[C@@]2(C)C1` (stereo partly drawn) [TG 103] it was “Easily soluble”.

As a reminder, the ED50 is the dose that gives a 50% effect, or the effect in half of the subjects. A high value points to weaker potency.

The record behind these values is patent US6140360A, “Antifungal agent” (TOA Gosei Co., Ltd., priority 1996, dated 2000).
